Our source for the Ki values is ChEMBL document CHEMBL4000248, “Synthesis and biological evaluation of cyclic imides incorporating benzenesulfonamide moieties as carbonic anhydrase I, II, IV and IX inhibitors” (Bioorg Med Chem, 2017).

As usually defined, the Ki is the equilibrium dissociation constant of an inhibitor or competing ligand from its target.

The target of the test is Carbonic anhydrase 9 (Homo sapiens, UniProt Q16790). Briefly: Inhibition of recombinant human carbonic anhydrase 9 incubated for 10 mins prior to testing by stopped flow CO2 hydrase assay.
In the case of `NS(=O)(=O)c1ccc(CCN2C(=O)CCC2=O)cc1`, the inhibition constant Ki turned out to be 296 nM.
As for `NS(=O)(=O)c1ccc(CCN2C(=O)c3c(Br)c(Br)c(Br)c(Br)c3C2=O)cc1`, the figure is 2390 nM; as for `NS(=O)(=O)c1ccc(CCN2C(=O)c3ccc([N+](=O)[O-])cc3C2=O)cc1`, 1640 nM.
As for `CC(C)(C)c1ccc2c(c1)C(=O)N(CCc1ccc(S(N)(=O)=O)cc1)C2=O`, the figure is 459 nM.
Regarding `NS(=O)(=O)c1ccc(CCN2C(=O)c3cc(Cl)c(Cl)cc3C2=O)cc1`, the Ki came to 428 nM.
Under `NS(=O)(=O)c1ccc(N2C(=O)C3C(C2=O)C2(Cl)C(Cl)=C(Cl)C3(Cl)C2(Cl)Cl)cc1` (centres undefined) stands 13.7 nM; under `NS(=O)(=O)c1ccc(CCN2C(=O)[C@H]3CC=CC[C@H]3C2=O)cc1`, 296 nM; under `NS(=O)(=O)c1ccc(CN2C(=O)C3C(C2=O)C2(Cl)C(Cl)=C(Cl)C3(Cl)C2(Cl)Cl)cc1` (centres undefined), 16.9 nM.
As for `NS(=O)(=O)c1ccc(CCN2C(=O)c3cccc([N+](=O)[O-])c3C2=O)cc1`, the figure is 2670 nM; as for `NS(=O)(=O)c1ccc(CCN2C(=O)c3nccnc3C2=O)cc1`, 4190 nM; as for `Cc1ccc2c(c1)C(=O)N(CCc1ccc(S(N)(=O)=O)cc1)C2=O`, 390 nM.
As for `NS(=O)(=O)c1ccc(CCN2C(=O)C=CC2=O)cc1`, the figure is 274 nM.
As for `NS(=O)(=O)c1ccc(CCN2C(=O)c3ccccc3C2=O)cc1`, the Ki worked out at 296 nM.
As for `NS(=O)(=O)c1ccc(CCN2C(=O)C3C(C2=O)C2(Cl)C(Cl)=C(Cl)C3(Cl)C2(Cl)Cl)cc1` (centres undefined), the figure is 114 nM.
